PubChem BioAssay (NCI)
“And” between values parts separate entries of the source, which are not always exact repeats. Equal entries are not always repeated.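 Briefly, cells in 96-well plates were exposed to five compound concentrations for 48 h, and endpoints were estimated by linear interpolation. GI50 marks 50% less growth. Definition used: TGI = concentration required for complete inhibition of growth.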

How the values were obtained:
Assay in all cases: NCI tumour cell line growth inhibition, 48 h; in the data active = GI50 below about 0.43 µM; inactive = the rest
SNB-75 CNS = system: SNB-75 CNS
MALME-3M melanoma = system: MALME-3M melanoma
DMS 114 small cell lung = system: DMS 114 small cell lung
KM20L2 colon = system: KM20L2 colon
U251 CNS = system: U251 CNS
SW-620 colon = system: SW-620 colon
HCT-116 colon = system: HCT-116 colon
SK-OV-3 ovarian = system: SK-OV-3 ovarian
HCC-2998 colon = system: HCC-2998 colon
SK-MEL-5 melanoma = system: SK-MEL-5 melanoma

CS(=O)(=O)C1S(=O)(=O)OCCOS1(=O)=O
> 100 µM: TGI (SNB-75 CNS) | TGI (MALME-3M melanoma) | TGI (DMS 114 small cell lung) | TGI (KM20L2 colon) | TGI (U251 CNS) | TGI (SW-620 colon) | TGI (HCT-116 colon) | TGI (SK-OV-3 ovarian) | TGI (HCC-2998 colon) | TGI (SK-MEL-5 melanoma)

CS(=O)(=O)NNS(=O)(=O)c1ccc(Br)cc1
> 100 µM: TGI (SNB-75 CNS) | TGI (MALME-3M melanoma) | TGI (DMS 114 small cell lung) | TGI (KM20L2 colon) | TGI (U251 CNS) | TGI (SW-620 colon) | TGI (HCT-116 colon) | TGI (SK-OV-3 ovarian) | TGI (HCC-2998 colon) | TGI (SK-MEL-5 melanoma)

C=C1C(=O)O[C@@H]2C[C@]3(C)[C@@H](C[C@H]12)[C@](C)(O)CC[C@@H]3O
> 100 µM: TGI (SNB-75 CNS) | TGI (MALME-3M melanoma) | TGI (DMS 114 small cell lung) | TGI (KM20L2 colon) | TGI (U251 CNS) | TGI (SW-620 colon) | TGI (HCT-116 colon) | TGI (SK-OV-3 ovarian) | TGI (HCC-2998 colon) | TGI (SK-MEL-5 melanoma)

COc1ccc(-c2cc(C(=O)Nc3cccc(C(F)(F)F)c3)[nH]c(=S)n2)cc1
> 100 µM: TGI (SNB-75 CNS) | TGI (MALME-3M melanoma) | TGI (DMS 114 small cell lung) | TGI (KM20L2 colon) | TGI (U251 CNS) | TGI (SW-620 colon) | TGI (HCT-116 colon) | TGI (SK-OV-3 ovarian) | TGI (HCC-2998 colon) | TGI (SK-MEL-5 melanoma)

Cc1c(Cl)ccc2c1NC(=O)C2(O)CC(=O)c1ccc(Cl)cc1Cl (stereo not drawn)
> 50 µM: TGI (MALME-3M melanoma) | TGI (DMS 114 small cell lung) | TGI (KM20L2 colon) | TGI (U251 CNS) | TGI (SW-620 colon) | TGI (HCT-116 colon) | TGI (SK-OV-3 ovarian) | TGI (HCC-2998 colon) | TGI (SK-MEL-5 melanoma)
> 41.3 µM: TGI (SNB-75 CNS)

O=C(Cc1ccccc1)Oc1ccc2c(-c3ccccc3)c(C(=O)Nc3ccc(Cl)cc3)c(=O)oc2c1
> 100 µM: TGI (SNB-75 CNS) | TGI (MALME-3M melanoma) | TGI (DMS 114 small cell lung) | TGI (KM20L2 colon) | TGI (U251 CNS) | TGI (SW-620 colon) | TGI (HCT-116 colon) | TGI (SK-OV-3 ovarian) | TGI (HCC-2998 colon) | TGI (SK-MEL-5 melanoma)

COc1ccc(OC)c(/C=C/[N+](=O)[O-])c1
12.9 µM and 11.8 µM: TGI (SNB-75 CNS)
7.26 µM and 11 µM: TGI (MALME-3M melanoma)
12.7 µM and 6.06 µM: TGI (HCT-116 colon)
4.29 µM and 6.58 µM: TGI (SK-MEL-5 melanoma)
9.34 µM: TGI (KM20L2 colon)
16.9 µM and 5.39 µM: TGI (SW-620 colon)
26.2 µM and 10.3 µM: TGI (SK-OV-3 ovarian)
11.9 µM: TGI (DMS 114 small cell lung)
8.86 µM and 7.37 µM: TGI (U251 CNS)
inactive: GI50 (SNB-75 CNS) 5.3 µM | GI50 (MALME-3M melanoma) 2.19 µM and 5.66 µM | GI50 (U251 CNS) 2.27 µM | GI50 (HCC-2998 colon) 4.24 µM and 4.38 µM | GI50 (SK-MEL-5 melanoma) 2.06 µM
10.4 µM and 7.54 µM: TGI (HCC-2998 colon)

CN(C)CCNC(=O)c1ccc2ccc3cccnc3c2n1
72 µM: TGI (KM20L2 colon)
> 88.8 µM: TGI (U251 CNS)
25.6 µM: TGI (DMS 114 small cell lung)
> 100 µM: TGI (SW-620 colon) | TGI (SK-OV-3 ovarian)
28.3 µM: TGI (SK-MEL-5 melanoma)
27.2 µM: TGI (HCT-116 colon)
25.4 µM: TGI (HCC-2998 colon)
28.7 µM: TGI (MALME-3M melanoma)
34.4 µM: TGI (SNB-75 CNS)

CC(C)(C)C1CC[C@H]2c3c([nH]c4ccc(Br)cc34)[C@H]3C(=O)N(c4ccccc4)C(=O)[C@H]3[C@H]2C1 (stereo partly drawn)
36.5 µM: TGI (U251 CNS)
> 100 µM: TGI (MALME-3M melanoma) | TGI (KM20L2 colon) | TGI (SW-620 colon) | TGI (HCT-116 colon) | TGI (HCC-2998 colon) | TGI (SK-MEL-5 melanoma)
54.9 µM: TGI (SNB-75 CNS)
40.8 µM: TGI (SK-OV-3 ovarian)
69.1 µM: TGI (DMS 114 small cell lung)

O=C(Cn1ccnc1[N+](=O)[O-])N(CCO)CCO
224 µM and > 1250 µM: TGI (MALME-3M melanoma)
> 250 µM: TGI (SK-OV-3 ovarian) | TGI (HCC-2998 colon)
250 µM and > 1250 µM: TGI (SNB-75 CNS)
> 1250 µM: TGI (DMS 114 small cell lung) | TGI (KM20L2 colon) | TGI (U251 CNS) | TGI (SW-620 colon) | TGI (HCT-116 colon) | TGI (SK-MEL-5 melanoma)
inactive: GI50 (SNB-75 CNS) 182 µM | GI50 (MALME-3M melanoma) > 1250 µM | GI50 (U251 CNS) > 1250 µM | GI50 (SW-620 colon) > 1250 µM | GI50 (HCT-116 colon) > 1250 µM | GI50 (SK-OV-3 ovarian) > 58 µM | GI50 (SK-MEL-5 melanoma) > 1250 µM

COc1ccc(CNc2cc(OC)cc(OC)c2)cc1
> 100 µM: TGI (MALME-3M melanoma) | TGI (DMS 114 small cell lung) | TGI (KM20L2 colon) | TGI (U251 CNS) | TGI (SW-620 colon) | TGI (HCT-116 colon) | TGI (SK-OV-3 ovarian) | TGI (HCC-2998 colon) | TGI (SK-MEL-5 melanoma)
> 100 µM and 96.8 µM: TGI (SNB-75 CNS)
inactive: GI50 (KM20L2 colon) > 100 µM and 49 µM
